Earlier results as cited in paper PMC11291853, “Haemodynamic, hormonal and renal actions of osteocrin in normal sheep” (Experimental Physiology, 2024).

Tests used:
people = test system: people; design: method as in Hirata et al., 1990; settings: exogenous ANP infusions achieving plasma concentrations of ∼150 pmol/L, ref Hirata et al., 1990; cited from earlier work
NPR-C = settings: purified ovine lung tissue membranes; ref Smith et al., 2000; read-out: K d, binding affinity to NPR-C; cited from earlier work
Protocol: Actions of OSTN on muscle cells (Subbotina et al., [2015]) and cartilage/bone (Moffatt et al., [2007]; Thomas et al., [2003]) have been studied, whereas few reports have examined the impact of the peptide on plasma concentrations of NPs and on cardiovascular and renal tissues. A crucial issue is the ability of OSTN, in tissues and in plasma, to impact NP concentrations in health or disease. In mice, constant infusion of the 10 kDa peptide [proOSTN (30–130)] at doses of 10 μg/kg/min (∼1000 pmol/kg/min) increased endogenous plasma ANP (by ∼15 pmol/L), similar to increments evoked by administrati ...

[1] = sheep; at comparable circulating concentrations (∼30 pmol/L); ref Charles, Espiner, Richards et al., 1996; cited from earlier work
Source text: To our knowledge, the metabolism of the 5 kDa OSTN has not been studied previously in vivo. […] Consistent with this is the longer half‐l ...

ANP: atrial natriuretic peptide
Increase in nephrogenous cGMP (people): 10 fold | Kd (NPR-C): 0.008 to 0.016 nM | Clearance rate (MCR) [1]: 5.7 L/min
